Measured values from patent US20150368195A1, “INDOLINE COMPOUNDS FOR TREATMENT AND/OR PREVENTION OF INFLAMMATION DISEASES” (Taipei Medical University, priority 2014, published 2015).
“Also recorded” adds a separate entry of the source.

Experiments:
HDAC1 = biological target: T1, HDAC1 (Homo sapiens, UniProt Q13547); experiment: recombinant HDAC isoform inhibition (kit); assay type: biochemical; details: mean ± SEM, three replicates
T1 construct: purchased
Description: (§1) Using kits that contained different recombinant HDAC isoforms, we evaluated the ability of MPT0G009 to inhibit HDAC-mediated deacetylation of lysine residues on the substrates that were provided.

HDAC8 = biological target: T2, HDAC8 (Homo sapiens, UniProt Q9BY41); experiment: recombinant HDAC isoform inhibition (kit); assay type: biochemical; details: mean ± SEM, three replicates, read-out: IC50 DHAC8
T2 construct: purchased
T2 sequence (Q9BY41 whole entry, canonical isoform): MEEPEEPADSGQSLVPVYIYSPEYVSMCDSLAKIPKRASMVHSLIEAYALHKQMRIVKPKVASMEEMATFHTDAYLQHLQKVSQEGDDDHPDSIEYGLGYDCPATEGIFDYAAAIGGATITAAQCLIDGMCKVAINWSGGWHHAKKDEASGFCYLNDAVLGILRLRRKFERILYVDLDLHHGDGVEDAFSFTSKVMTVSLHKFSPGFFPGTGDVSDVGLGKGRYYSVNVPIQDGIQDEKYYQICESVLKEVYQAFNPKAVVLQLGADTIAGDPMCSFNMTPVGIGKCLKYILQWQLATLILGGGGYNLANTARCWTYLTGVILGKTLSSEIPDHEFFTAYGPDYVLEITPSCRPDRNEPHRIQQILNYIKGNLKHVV
Description: as §1

HDAC6 = biological target: T3, HDAC6 (Homo sapiens, UniProt Q9UBN7); experiment: recombinant HDAC isoform inhibition (kit); assay type: biochemical; details: mean ± SEM, three replicates
T3 construct: purchased
T3 sequence (Q9UBN7 whole entry, species assumed, canonical isoform): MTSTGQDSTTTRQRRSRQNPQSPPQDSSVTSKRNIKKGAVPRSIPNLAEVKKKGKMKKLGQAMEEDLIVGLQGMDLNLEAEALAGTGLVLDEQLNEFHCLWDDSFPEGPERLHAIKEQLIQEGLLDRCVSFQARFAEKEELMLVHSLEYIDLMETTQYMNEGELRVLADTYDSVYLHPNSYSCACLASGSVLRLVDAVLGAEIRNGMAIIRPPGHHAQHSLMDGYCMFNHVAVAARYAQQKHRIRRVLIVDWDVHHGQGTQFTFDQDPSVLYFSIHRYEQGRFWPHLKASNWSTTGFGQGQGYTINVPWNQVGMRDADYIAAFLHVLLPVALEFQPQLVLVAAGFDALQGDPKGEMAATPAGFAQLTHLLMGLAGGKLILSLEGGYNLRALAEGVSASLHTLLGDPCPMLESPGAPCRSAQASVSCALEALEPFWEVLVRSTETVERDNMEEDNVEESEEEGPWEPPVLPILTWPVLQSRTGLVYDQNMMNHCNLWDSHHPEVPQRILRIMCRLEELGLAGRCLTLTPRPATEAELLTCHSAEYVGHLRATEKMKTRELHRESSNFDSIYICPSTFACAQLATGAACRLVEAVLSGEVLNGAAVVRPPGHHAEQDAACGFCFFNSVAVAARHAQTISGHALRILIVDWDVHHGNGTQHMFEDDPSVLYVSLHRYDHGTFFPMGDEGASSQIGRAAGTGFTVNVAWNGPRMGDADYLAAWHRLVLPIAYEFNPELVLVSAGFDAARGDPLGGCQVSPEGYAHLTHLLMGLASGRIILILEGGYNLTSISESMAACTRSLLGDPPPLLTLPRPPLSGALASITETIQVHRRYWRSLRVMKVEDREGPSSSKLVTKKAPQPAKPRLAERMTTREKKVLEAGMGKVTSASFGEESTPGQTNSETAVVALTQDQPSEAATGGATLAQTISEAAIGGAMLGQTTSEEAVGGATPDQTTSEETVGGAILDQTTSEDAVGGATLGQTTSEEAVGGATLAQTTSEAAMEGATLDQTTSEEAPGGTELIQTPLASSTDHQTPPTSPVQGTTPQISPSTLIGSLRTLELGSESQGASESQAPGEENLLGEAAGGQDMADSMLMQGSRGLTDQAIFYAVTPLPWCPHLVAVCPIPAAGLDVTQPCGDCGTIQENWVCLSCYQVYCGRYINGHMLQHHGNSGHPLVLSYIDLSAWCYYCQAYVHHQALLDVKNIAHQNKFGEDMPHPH
Description: as §1

HDAC3 = biological target: T4, HDAC3 (Homo sapiens, UniProt O15379); experiment: recombinant HDAC isoform inhibition (kit); assay type: biochemical; details: mean ± SEM, three replicates
T4 construct: purchased
T4 sequence (O15379 whole entry, species assumed, canonical isoform): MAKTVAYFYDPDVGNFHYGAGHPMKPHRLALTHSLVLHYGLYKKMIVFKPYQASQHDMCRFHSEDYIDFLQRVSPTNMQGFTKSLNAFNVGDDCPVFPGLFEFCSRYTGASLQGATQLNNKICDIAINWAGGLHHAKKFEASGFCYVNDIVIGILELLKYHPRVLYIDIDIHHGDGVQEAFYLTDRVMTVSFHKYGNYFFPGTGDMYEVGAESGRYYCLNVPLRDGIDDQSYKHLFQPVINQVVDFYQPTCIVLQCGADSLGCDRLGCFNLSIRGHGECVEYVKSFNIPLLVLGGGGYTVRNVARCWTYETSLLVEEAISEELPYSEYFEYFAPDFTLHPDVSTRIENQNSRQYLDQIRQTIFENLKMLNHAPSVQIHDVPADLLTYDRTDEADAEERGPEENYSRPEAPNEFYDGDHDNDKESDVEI
T4 sequence (Q9Y618 395-489 partner limits assumed, species assumed): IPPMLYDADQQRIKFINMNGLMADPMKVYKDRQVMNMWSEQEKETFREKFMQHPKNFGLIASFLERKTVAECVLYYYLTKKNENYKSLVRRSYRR
Description: as §1

HDAC2 = biological target: T5, HDAC2 (Homo sapiens, UniProt Q92769); experiment: recombinant HDAC isoform inhibition (kit); assay type: biochemical; details: mean ± SEM, three replicates
T5 construct: purchased
T5 sequence (Q92769 whole entry, species assumed, canonical isoform): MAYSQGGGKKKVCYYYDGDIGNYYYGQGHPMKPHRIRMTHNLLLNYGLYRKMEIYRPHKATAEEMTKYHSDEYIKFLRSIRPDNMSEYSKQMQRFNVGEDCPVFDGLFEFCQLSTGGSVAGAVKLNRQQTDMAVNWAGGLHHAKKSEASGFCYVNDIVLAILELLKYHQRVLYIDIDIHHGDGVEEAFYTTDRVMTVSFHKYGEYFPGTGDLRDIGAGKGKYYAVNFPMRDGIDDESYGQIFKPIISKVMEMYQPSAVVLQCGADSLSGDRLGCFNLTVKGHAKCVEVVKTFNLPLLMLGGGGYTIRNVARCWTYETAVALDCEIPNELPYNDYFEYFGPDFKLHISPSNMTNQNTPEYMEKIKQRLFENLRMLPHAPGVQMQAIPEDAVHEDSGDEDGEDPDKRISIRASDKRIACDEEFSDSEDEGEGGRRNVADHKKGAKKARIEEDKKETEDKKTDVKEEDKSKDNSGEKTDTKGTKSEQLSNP
Description: as §1

collagen I = experiment: TGF-β-induced collagen I production, Western blot; assay type: cell-based, human; details: WI-38 lung fibroblasts; 1 μM pretreatment; TGF-β 10 ng/mL 24 h
Description: Western blot analysis was performed. First, WI-38 lung fibroblasts were incubated with different concentrations of MPT0E028 (0.01, 0.03, 0.1, 0.3, or 1 μM) (FIG. 10A) or MPT0G009 (0.01, 0.03, 0.1, 0.3, or 1 μM) (FIG. 10B) for 30 min before and during incubation for 2 h with TGF-β (10 ng/mL). WI-38 lung fibroblasts were incubated with 1 μM MPT0E028 and MPT0G009 for 30 min and following another incubation for 2 h with 1 U/ml thrombin (FIG. 10C) and 10 nM ET-1 (FIG. 10D). The collagen I production from WI-38 lung fibroblasts stimulated by 10 ng/mL TGF-β for 24 h was inhibited with 1 μM MPT0E028 and MPT0G009 pretreatment (FIG. 10E).
WI-38 cells, a normal human embryonic lung fibroblast cell line, were obtained from American Type Culture Collection (Manassas, Va.). […]
Western blot analyses were performed as described previously (Chen B C, Chang Y S, Kang J C, Hsu M J, Sheu J R, Chen T L, et al. Peptidoglycan induces nuclear factor-kappaB activation and cyclooxygenase-2 expression via Ras, Raf-1, and ERK in RAW 264.7 macrophages. J Biol Chem 2004; 279:20889-97). […] The immunoreactivity was detected using enhanced chemiluminescence (ECL) following the manufacturer's instructions. Quantitative data were obtained using a computing densitometer with scientific imaging systems (Kodak, Rochester, N.Y.). […]

p21 = p21 expression by flow cytometry or western blot in RA-FLS; assay type: cell-based; details: 24 h, 1 μM MPT0G009 or 3 μM SAHA
Description: (§2) (FIG. 1A) Structure of MPT0G009. […] Results in (FIGS. 1B-E) and (FIG. 1G) are means±SEM's for three independent experiments, *p<0.05 and **p<0.01 compared with no added inhibitor.

[1] = tested on: adjuvant-induced arthritis; experiment: adjuvant-induced arthritis (AIA) model; details: MPT0G009 25 mg/kg
Description: (FIG. 8B) Hind paw volumes in the indicated group of rats were measured using a digital plethysmometer on the indicated day after AIA induction. […] (FIG. 8D) Serum levels of interleukin (IL)-1β (left panel) and IL-6 (right panel) on day 21 as measured by enzyme-linked immunosorbent assay (ELISA). […] (FIG. 8F) The bone mineral density (BMD, in mg/mm^3) and the bone mineral content (BMC, in mg) values for the bone tissue of the tarsus were analyzed using CT Analysis Software.

HIG-82 synoviocytes = experiment: SRB anti-proliferation assay; assay type: cell-based; details: 24 or 48 h incubation
Description: as §2

RA-FLS = experiment: SRB anti-proliferation assay; assay type: cell-based; details: 24 or 48 h incubation
Description: as §2

[2] = maximum tolerated dose (MTD); assay type: in vivo; details: for Lethality / Change of body weight Day 7 / Change of body weight Day 14 / Change of body weight Day 21: qd × 7; for Change of body weight Day 7 / Change of body weight Day 14 / Change of body weight Day 21: mean ± SEM
prostaglandin E2 (PGE2) = experiment: LPS-induced PGE2 production by RA-FLS; assay type: cell-based; details: MPT0G009 0.1, 1, 10 μM; SAHA 0.3, 3, 30 μM; LPS 25 ng/mL 24 h
Description: as §2
Furthermore, the anti-inflammatory effects of MPT0G009 was evaluated. […] These supernatants were then assayed for PGE2, NO, and IL-6.

[3] = day 21, ELISA, SAHA 200 mg/kg, indomethacin 1 mg/kg
[4] = oral daily days 2 to 21, SAHA 200 mg/kg, indomethacin 1 mg/kg, vs vehicle

T1 sequence (Q13547 whole entry, species assumed, canonical isoform): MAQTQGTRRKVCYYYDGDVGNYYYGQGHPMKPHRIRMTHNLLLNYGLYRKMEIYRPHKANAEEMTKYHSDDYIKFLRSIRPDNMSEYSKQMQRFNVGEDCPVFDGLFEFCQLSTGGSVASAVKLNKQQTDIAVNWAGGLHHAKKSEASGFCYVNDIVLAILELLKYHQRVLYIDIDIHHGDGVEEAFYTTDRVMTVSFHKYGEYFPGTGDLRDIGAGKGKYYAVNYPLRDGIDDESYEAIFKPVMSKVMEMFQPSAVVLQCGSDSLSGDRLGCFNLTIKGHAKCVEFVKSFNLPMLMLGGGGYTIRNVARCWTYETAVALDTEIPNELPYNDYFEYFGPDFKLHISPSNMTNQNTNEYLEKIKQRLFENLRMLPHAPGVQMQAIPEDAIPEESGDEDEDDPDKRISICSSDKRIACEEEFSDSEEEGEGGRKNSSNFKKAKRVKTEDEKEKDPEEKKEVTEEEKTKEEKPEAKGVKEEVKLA

COc1ccc(S(=O)(=O)N2CCc3cc(C=CC(=O)NO)ccc32)cc1 [Compound 9, 3-[1-(4-methoxybenzenesulfonyl)-2,3-dihydro-1H-indol-5-yl]-N-Hydroxyacrylamide]
IC50 (HDAC1): 4.62 ± 0.81 nM
IC50 (HDAC8): 22.5 nM
IC50 (HDAC6): 8.43 ± 0.72 nM
IC50 (HDAC3): 1.91 nM
IC50 (HDAC2): 5.16 ± 0.76 nM
collagen I production (collagen I): inhibited
expression of p21 (p21): significantly increased
bone destruction (micro-computed tomography) [1]: ameliorated
bone mineral density (BMD) and bone mineral content (BMC) [1]: prevented the decrease
cartilage degradation (safranin O staining of ankle joints) [1]: markedly reduced
decrease of osteoblasts [1]: apparently ameliorated
formation of osteoclasts (TRAP stain) [1]: significantly decreased
leukocyte infiltration, synovitis (hematoxylin and eosin staining) [1]: significantly reduced
levels of acetyl-histone H3 (immunohistochemical staining) [1]: increased levels
synoviocytes proliferation and inflammation (KI-67, COX-2 staining) ([1]; 25 mg/kg): inhibition; also recorded: suppresses
serum levels of IL-1β [1, 3]: significant decreases
serum levels of IL-6 [1, 3]: significant decreases
arthritis scores ([1]; day 21, SAHA 200 mg/kg, indomethacin 1 mg/kg, vs vehicle): significant reductions
paw swelling [1, 4]: significant reductions
paw volume [1, 4]: significant reductions
proliferation of HIG-82 synoviocytes (HIG-82 synoviocytes): concentration-dependent anti-proliferative effects
proliferation of RA-FLS (RA-FLS): concentration-dependent anti-proliferative effects
Lethality ([2]; 250 mg/kg po): 0%
Change of body weight Day 7 ([2]; 250 mg/kg po): +8.7 ± 0.5%
Change of body weight Day 14 ([2]; 250 mg/kg po): +17.0 ± 0.4%
Change of body weight Day 21 ([2]; 250 mg/kg po): +22.6 ± 0.6%
Lethality ([2]; 500 mg/kg po): 0%
Change of body weight Day 7 ([2]; 500 mg/kg po): +1.6 ± 0.3%
Change of body weight Day 14 ([2]; 500 mg/kg po): +16.5 ± 0.6%
Change of body weight Day 21 ([2]; 500 mg/kg po): +24.0 ± 0.9%
Lethality ([2]; 1000 mg/kg po): 0%
Change of body weight Day 7 ([2]; 1000 mg/kg po): +4.4 ± 0.6%
Change of body weight Day 14 ([2]; 1000 mg/kg po): +12.0 ± 0.7%
Change of body weight Day 21 ([2]; 1000 mg/kg po): +15.3 ± 0.8%
adverse effects ([2]; mice, dosage of up to 1000 mg/kg/day, within three weeks): No significant adverse effects
PGE2 production by RA-FLS (prostaglandin E2 (PGE2)): inhibited
